Laboratory results published in patent US9512144B2, “Imidazothiazole sufonamides as nematicides” (BAYER CROPSCIENCE AKTIENGESELLSCHAFT, priority 2013, dated 2016).

System: Meloidogyne incognita
Test: Meloidogyne incognita test (MELGIN): sand, salad seeds, gall formation after 14 days
Assay type: in vivo
Conditions: application rate 20 ppm, salad seedlings in sand
Method: Solvent: 125.0 parts by weight of acetone To produce a suitable preparation of active compound, 1 part by weight of active compound is mixed with the stated amount of solvent, and the concentrate is diluted with water to the desired concentration. Vessels are filled with sand, a solution of the active ingredient, a suspension containing eggs and larvae of the southern root-knot nematode (Meloidogyne incognita) and salad seeds. The salad seeds germinate and the seedlings grow. Galls develop in the roots. After 14 days the nematicidal activity is determined on the basis of the percentage of gall formation. 100% means that no galls were found; 0% means that the number of galls found on the roots of the treated plants was equal to that in untreated control plants.

SMILES | nematicidal activity on the basis of the percentage of gall formation (100% = no galls)
O=C(NS(=O)(=O)c1ccccc1OC(F)(F)F)c1cn2cc(C(F)(F)F)sc2n1 [Example I-1-281] | 90%
O=C(NS(=O)(=O)c1ccccc1Cl)c1cn2cc(Cl)sc2n1 [Example I-1-17] | 100%
O=C(NS(=O)(=O)c1cccc(Cl)c1)c1cn2cc(C(F)(F)C(F)(F)F)sc2n1 [Example I-1-143] | 90%
Cc1c(C(F)(F)C(F)(F)F)sc2nc(C(=O)NS(=O)(=O)c3cccc(Cl)c3)cn12 [Example I-1-250] | 90%
CCCOc1ccc(Cl)cc1S(=O)(=O)NC(=O)c1cn2cc(C(F)(F)F)sc2n1 [Example I-1-313] | 100%
COc1ccc(Cl)c(S(=O)(=O)NC(=O)c2cn3cc(SC)sc3n2)c1 [Example I-1-299] | 90%
O=C(NS(=O)(=O)c1cc(Cl)ccc1Cl)c1cn2cc(C(F)(F)C(F)(F)F)sc2n1 [Example I-1-145] | 100%
COc1ccc(Cl)c(S(=O)(=O)NC(=O)c2nc3sc(C(F)(F)F)cn3c2I)c1 [Example I-3-6] | 100%
O=C(NS(=O)(=O)c1cc(Cn2cccn2)ccc1Cl)c1cn2cc(C(F)(F)C(F)(F)F)sc2n1 [Example I-1-292] | 100%
Cc1ccc(C)c(S(=O)(=O)NC(=O)c2cn3cc(Cl)sc3n2)c1 [Example I-1-22] | 100%
CSc1cn2cc(C(=O)NS(=O)(=O)c3c(Cl)cccc3Cl)nc2s1 [Example I-1-300] | 100%
O=C(NS(=O)(=O)c1ccc(Cl)cc1)c1cn2cc(Cl)sc2n1 [Example I-1-51] | 100%
O=C(NS(=O)(=O)c1ccc(Cl)cc1Cl)c1cn2cc(C(F)(F)F)sc2n1 [Example I-1-279] | 90%
O=C(NS(=O)(=O)c1ccccc1Cl)c1cn2nc(C(F)(F)F)sc2n1 [Example I-1-202] | 90%
Cc1ccc(C)c(S(=O)(=O)NC(=O)c2cn3c(C(F)(F)F)csc3n2)c1 [Example I-1-270] | 100%
CC(C)(C)c1cn2cc(C(=O)NS(=O)(=O)c3c(Cl)cccc3Cl)nc2s1 [Example I-1-13] | 100%
O=C(NS(=O)(=O)c1c(F)cccc1F)c1cn2cc(C(F)(F)F)sc2n1 [Example I-1-11] | 100%
CC(=O)c1ccc(Cl)c(S(=O)(=O)NC(=O)c2cn3cc(C(F)(F)F)sc3n2)c1 [Example I-1-301] | 100%
CSc1cn2cc(C(=O)NS(=O)(=O)c3cc(C(F)(F)F)ccc3Cl)nc2s1 [Example I-1-296] | 100%
O=C(NS(=O)(=O)c1ccccc1-c1ccccc1)c1cn2cc(C(F)(F)C(F)(F)F)sc2n1 [Example I-1-235] | 100%
Cc1ccc(Cn2cccn2)cc1S(=O)(=O)NC(=O)c1cn2cc(C(F)(F)F)sc2n1 [Example I-1-288] | 90%
CCc1ccc(Cl)cc1S(=O)(=O)NC(=O)c1cn2cc(C(F)(F)F)sc2n1 [Example I-1-309] | 100%

SMILES | nematicidal activity on the basis of the percentage of gall formation (100% = no galls)
Cc1ccc(C(C)(C)C)cc1S(=O)(=O)NC(=O)c1cn2cc(C(F)(F)C(F)(F)F)sc2n1 [Example I-1-233] | 100%
CSc1cn2cc(C(=O)NS(=O)(=O)c3cc(Cl)ccc3Cl)nc2s1 [Example I-1-297] | 90%
CSc1ccc(Cl)c(S(=O)(=O)NC(=O)c2cn3cc(C(F)(F)F)sc3n2)c1 [Example I-1-308] | 100%
Cc1ccc(Cl)cc1S(=O)(=O)NC(=O)c1cn2c(C)c(C(F)(F)F)sc2n1 [Example I-1-290] | 100%
O=C(NS(=O)(=O)c1ccc(Cl)cc1Cl)c1cn2cc(C(F)(F)C(F)(F)F)sc2n1 [Example I-1-224] | 100%
Cc1c(Cl)ccc(S(=O)(=O)NC(=O)c2cn3cc(C(F)(F)F)sc3n2)c1C [Example I-1-307] | 100%
O=C(NS(=O)(=O)c1cccc(Cl)c1)c1cn2cc(Cl)sc2n1 [Example I-1-50] | 100%
O=C(NS(=O)(=O)c1cccc(Cl)c1)c1cn2cc(C(F)(F)F)sc2n1 [Example I-1-272] | 90%
O=C(NS(=O)(=O)c1ccc(Cl)cc1)c1cn2cc(C(F)(F)C(F)(F)F)sc2n1 [Example I-1-144] | 90%
COc1ccc(Cl)c(S(=O)(=O)NC(=O)c2cn3c(C(F)(F)F)csc3n2)c1 [Example I-1-29] | 90%
O=C(NS(=O)(=O)c1c(Cl)cccc1Cl)c1cn2cc(Cl)sc2n1 [Example I-1-43] | 100%
O=C(NS(=O)(=O)c1cc(C(F)(F)F)ccc1Cl)c1cn2cc(Cl)sc2n1 [Example I-1-21] | 100%
CCCOc1ccc(Cl)c(S(=O)(=O)NC(=O)c2cn3cc(C(F)(F)C(F)(F)F)sc3n2)c1 [Example I-1-238] | 100%
Cc1ccc(OC(F)F)c(S(=O)(=O)NC(=O)c2cn3cc(C(F)(F)F)sc3n2)c1 [Example I-1-314] | 90%
Cc1cc(S(=O)(=O)NC(=O)c2cn3cc(Cl)sc3n2)c(C)cc1C#N [Example I-1-45] | 100%
O=C(NS(=O)(=O)c1ccccc1F)c1cn2cc(C(F)(F)F)sc2n1 [Example I-1-212] | 100%
Cc1ccc(Cn2cccn2)cc1S(=O)(=O)NC(=O)c1cn2cc(C(F)(F)C(F)(F)F)sc2n1 [Example I-1-295] | 90%
COc1ccccc1S(=O)(=O)NC(=O)c1cn2cc(C(F)(F)C(F)(F)F)sc2n1 [Example I-1-248] | 100%
Cc1ccc(OC(F)F)cc1S(=O)(=O)NC(=O)c1cn2cc(C(F)(F)F)sc2n1 [Example I-1-7] | 90%
O=C(NS(=O)(=O)c1cc(Cl)ccc1Cl)c1cn2c(C(F)(F)F)csc2n1 [Example I-1-31] | 100%
CC(=O)c1ccc(Cl)c(S(=O)(=O)NC(=O)c2cn3c(C)c(C(F)(F)F)sc3n2)c1 [Example I-1-302] | 100%
Cc1cc(S(=O)(=O)NC(=O)c2cn3cc(C(F)(F)F)sc3n2)c(C)cc1Br [Example I-1-14] | 100%
